Source: ChEMBL document CHEMBL1139224, “Discovery and metabolic stabilization of potent and selective 2-amino-N-(adamant-2-yl) acetamide 11beta-hydroxysteroid dehydrogenase type 1 inhibitors” (J Med Chem, 2007)
pIC50, pKi: −log10 of the molar value.

Key:
[1] = target: 11-beta-hydroxysteroid dehydrogenase 1 (Rattus norvegicus, UniProt P16232); assay: Inhibitory activity against rat 11beta-HSD1
[2] = target: T1, 11-beta-hydroxysteroid dehydrogenase type 2 (Rattus norvegicus, UniProt P50233); assay: Inhibitory activity against rat 11beta-HSD2
T1 sequence (P50233 whole entry): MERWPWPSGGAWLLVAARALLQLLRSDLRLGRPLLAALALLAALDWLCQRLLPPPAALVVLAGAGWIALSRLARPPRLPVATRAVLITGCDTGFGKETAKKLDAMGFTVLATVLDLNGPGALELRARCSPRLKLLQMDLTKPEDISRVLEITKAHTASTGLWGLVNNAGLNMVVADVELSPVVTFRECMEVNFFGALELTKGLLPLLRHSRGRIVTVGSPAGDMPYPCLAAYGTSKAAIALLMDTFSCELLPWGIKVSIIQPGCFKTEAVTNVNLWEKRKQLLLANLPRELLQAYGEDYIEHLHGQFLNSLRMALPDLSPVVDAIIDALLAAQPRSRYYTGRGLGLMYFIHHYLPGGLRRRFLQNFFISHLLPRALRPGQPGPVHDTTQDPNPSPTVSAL

[3] = target: T2, 11-beta-hydroxysteroid dehydrogenase type 2 (Mus musculus, UniProt P51661); assay: Inhibitory activity against mouse 11beta-HSD2 by SPA
T2 sequence (P51661 whole entry): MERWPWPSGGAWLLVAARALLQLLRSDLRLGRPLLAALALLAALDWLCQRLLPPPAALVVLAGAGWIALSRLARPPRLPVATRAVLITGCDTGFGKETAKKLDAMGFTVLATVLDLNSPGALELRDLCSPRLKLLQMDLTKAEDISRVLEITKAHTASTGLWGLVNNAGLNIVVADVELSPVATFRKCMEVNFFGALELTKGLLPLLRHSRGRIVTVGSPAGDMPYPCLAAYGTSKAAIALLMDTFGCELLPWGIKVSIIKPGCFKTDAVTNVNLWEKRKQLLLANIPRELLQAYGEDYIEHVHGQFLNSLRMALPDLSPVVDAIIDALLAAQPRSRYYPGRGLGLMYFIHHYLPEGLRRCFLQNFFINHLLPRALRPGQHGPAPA

[4] = Intrinsic clearance in human liver microsomes at 1 uM; assay type: ADME, Microsome
[5] = target: 11-beta-hydroxysteroid dehydrogenase 1 (Mus musculus, UniProt P50172); assay: Inhibition of mouse 11beta-HSD1 expressed in Escherichia coli by SPA
Sequence of 11-beta-hydroxysteroid dehydrogenase 1 (Mus musculus, UniProt P50172) (P50172 whole entry): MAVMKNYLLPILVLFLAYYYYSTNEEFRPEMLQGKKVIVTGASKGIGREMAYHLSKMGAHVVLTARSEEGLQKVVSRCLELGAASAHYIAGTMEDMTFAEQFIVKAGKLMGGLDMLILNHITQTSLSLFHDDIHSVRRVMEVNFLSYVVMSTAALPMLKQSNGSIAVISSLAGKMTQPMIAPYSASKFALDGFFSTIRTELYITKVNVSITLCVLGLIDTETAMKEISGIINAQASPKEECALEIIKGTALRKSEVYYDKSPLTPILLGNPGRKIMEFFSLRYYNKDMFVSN

[6] = target: T3, 11-beta-hydroxysteroid dehydrogenase 1 (Homo sapiens, UniProt P28845); assay: Inhibition of human 11beta-HSD1 expressed in HEK293 cells by FPIA; assay type: cell-based
T3 sequence (P28845 whole entry): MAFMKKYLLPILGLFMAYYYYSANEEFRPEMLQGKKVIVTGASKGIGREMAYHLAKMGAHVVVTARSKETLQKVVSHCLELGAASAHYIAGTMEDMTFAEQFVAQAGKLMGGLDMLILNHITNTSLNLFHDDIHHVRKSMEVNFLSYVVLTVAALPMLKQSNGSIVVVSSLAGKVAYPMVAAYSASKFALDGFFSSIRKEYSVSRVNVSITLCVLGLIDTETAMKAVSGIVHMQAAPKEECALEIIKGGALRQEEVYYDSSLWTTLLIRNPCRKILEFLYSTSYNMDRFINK

[7] = target: T4, 11-beta-hydroxysteroid dehydrogenase type 2 (Homo sapiens, UniProt P80365); assay: Inhibitory activity against human 11beta-HSD2 by SPA
T4 sequence (P80365 whole entry): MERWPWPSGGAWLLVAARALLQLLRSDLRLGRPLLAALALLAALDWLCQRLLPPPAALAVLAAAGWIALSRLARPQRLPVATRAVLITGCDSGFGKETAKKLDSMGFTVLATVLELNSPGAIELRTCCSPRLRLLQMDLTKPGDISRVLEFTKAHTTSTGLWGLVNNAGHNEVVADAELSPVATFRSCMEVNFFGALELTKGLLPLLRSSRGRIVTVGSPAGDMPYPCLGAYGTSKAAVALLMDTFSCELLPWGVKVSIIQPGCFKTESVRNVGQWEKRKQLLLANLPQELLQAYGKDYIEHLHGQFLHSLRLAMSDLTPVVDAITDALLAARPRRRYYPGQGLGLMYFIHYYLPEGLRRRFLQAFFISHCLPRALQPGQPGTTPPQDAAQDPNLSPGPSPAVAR

[8] = Intrinsic clearance in rat liver microsomes at 1 uM; assay type: ADME, Microsome
[9] = Intrinsic clearance in mouse liver microsomes at 1 uM; assay type: ADME, Microsome
[10] = target: T3, 11-beta-hydroxysteroid dehydrogenase 1; assay: Inhibition of human 11beta-HSD1 expressed in Escherichia coli by SPA
[11] = Plasma clearance in mouse at 10 mg/kg, iv; assay type: ADME, organism-based; design: dose 10 mg/kg, route intravenous
Mus musculus = assay: AUC in mouse at 10 mg/kg, po; assay type: ADME, organism-based, Plasma; design: dose 10 mg/kg, route oral; details: in vivo
[12] = Half life in mouse at 10 mg/kg, iv; assay type: ADME, organism-based; design: dose 10 mg/kg, route intravenous; details: in vivo
[13] = Oral bioavailability in mouse at 10 mg/kg, po; assay type: ADME, organism-based; details: in vivo
[14] = Volume of distribution in mouse at 10 mg/kg, iv; assay type: ADME, organism-based; design: dose 10 mg/kg, route intravenous; details: in vivo, read-out: Vdss
[15] = Half life in mouse at 10 mg/kg, po; assay type: ADME, organism-based; design: dose 10 mg/kg, route oral; details: in vivo

Sequence of 11-beta-hydroxysteroid dehydrogenase 1 (Rattus norvegicus, UniProt P16232) (P16232 whole entry): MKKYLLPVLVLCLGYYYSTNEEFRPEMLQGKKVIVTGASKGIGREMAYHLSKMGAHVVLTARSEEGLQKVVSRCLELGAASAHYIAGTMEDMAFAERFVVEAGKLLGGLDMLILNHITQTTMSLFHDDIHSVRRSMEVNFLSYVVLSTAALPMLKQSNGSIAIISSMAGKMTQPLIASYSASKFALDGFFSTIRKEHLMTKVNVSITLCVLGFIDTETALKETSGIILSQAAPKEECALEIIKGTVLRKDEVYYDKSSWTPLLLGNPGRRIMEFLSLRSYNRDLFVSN

Row | SMILES | pKi [1] | pIC50 [2] | pIC50 [3] | CLint scaled at 1 µM [4] [mL/min/kg] | pKi [5] | pIC50 [6] | pIC50 [7] | CLint scaled at 1 µM [8] [mL/min/kg] | CLint scaled at 1 µM [9] [mL/min/kg] | pKi [10] | clearance [11] [mL/min/kg] | AUC (Mus musculus) [ug/hr.ml] | half-life [12] [min] | bioavailability [13] [%] | Vd [14] [L/kg] | half-life [15] [min]
1 | O=C(CN1CC[C@H](C(F)(F)F)C1)N[C@H]1C2CC3CC1C[C@](O)(C3)C2 | 8.52 | < 4.00 | < 4.00 | < 16.7 | 8.70 | 7.46 | < 4.00 | 467 | 1000 | 8.52 | – | – | – | – | – | –
2 | O=C(CN1CCN(c2ccc(C(F)(F)F)cn2)CC1)NC1C2CC3CC(C2)CC1C3 (stereo not drawn) | – | – | – | 167 | 7.29 | – | – | – | 2370 | – | – | – | – | – | – | –
3 | CC(C(=O)N[C@H]1C2CC3CC1C[C@](O)(C3)C2)N1CC(Oc2ccccc2F)C1 (stereo partly drawn) | 7.28 | < 4.00 | < 4.00 | < 16.7 | 8.15 | – | – | 66.7 | 383 | – | 120 | 0.8 | 18 | 58 | 1.2 | 60
4 | CC(C(=O)N[C@H]1C2C[C@]3(O)CC1C[C@](F)(C2)C3)N1CCN(c2ccc(C(F)(F)F)cn2)CC1 (mixture of isomers) | – | – | – | 16.7 | 6.04 | – | – | – | 933 | – | – | – | – | – | – | –
5 | O=C(CN1CCN(c2ccc(Cl)cc2)CC1)NC1C2CC3CC(C2)CC1C3 (stereo not drawn) | – | – | – | 583 | 7.68 | – | – | – | 1050 | – | – | – | – | – | – | –
6 | O=C(CN1CCN(c2ccc(C(F)(F)F)cn2)CC1)N[C@H]1C2CC3CC1C[C@@](O)(C3)C2 | – | – | < 4.00 | 183 | 6.52 | < 4.82 | < 5.00 | – | 1080 | 7.17 | – | – | – | – | – | –
7 | C[C@@H](C(=O)N[C@H]1C2CC3CC1C[C@](O)(C3)C2)N1CCN(c2ccc(C(F)(F)F)cn2)CC1 (stereo in doubt; (R)-22f) | – | – | – | 16.7 | 8.30 | 7.59 | – | – | – | 8.40 | – | – | – | – | – | –

Further compounds by rising pKi [5], results first:

Row | pKi [1] | pIC50 [2] | pIC50 [3] | CLint scaled at 1 µM [4] [mL/min/kg] | pKi [5] | pIC50 [6] | pIC50 [7] | CLint scaled at 1 µM [8] [mL/min/kg] | CLint scaled at 1 µM [9] [mL/min/kg] | pKi [10] | clearance [11] [mL/min/kg] | AUC (Mus musculus) [ug/hr.ml] | half-life [12] [min] | bioavailability [13] [%] | Vd [14] [L/kg] | half-life [15] [min] | SMILES
8 | – | – | – | < 16.7 | 5.39 | – | – | – | < 100 | – | – | – | – | – | – | – | CC(C(=O)N[C@H]1C2C[C@@]3(O)CC1C[C@@](O)(C2)C3)N1CCN(c2ccc(C(F)(F)F)cn2)CC1 (mixture of isomers)
9 | – | – | – | – | 6.59 | 7.44 | – | – | – | 8.15 | – | – | – | – | – | – | C[C@@H](C(=O)N[C@H]1C2CC3CC1C[C@](O)(C3)C2)N1CCN(c2ccc(C(F)(F)F)cn2)CC1 (stereo in doubt; (S)-22f)
10 | – | – | < 4.00 | 33.3 | 6.92 | 6.26 | < 4.70 | – | 2270 | 7.49 | – | – | – | – | – | – | O=C(CN1CCN(c2ccc(C(F)(F)F)cn2)CC1)N[C@H]1C2CC3CC1C[C@](F)(C3)C2
11 | – | – | < 4.00 | 233 | 6.96 | 6.35 | < 4.00 | – | < 100 | 7.59 | – | – | – | – | – | – | O=C(CN1CCN(c2ccc(C(F)(F)F)cn2)CC1)N[C@H]1C2CC3CC1C[C@@](F)(C3)C2
